Reference: ChEMBL document CHEMBL4393717, “Development of novel human lactate dehydrogenase A inhibitors: High-throughput screening, synthesis, and biological evaluations” (Eur J Med Chem, 2019)
Activity calls are given as the source filed them. The rule behind the calls is not given here.

Assays:
MIA PaCa-2 [1] = assay: Antiproliferative activity against human MIAPaCa2 cells assessed as reduction in cell viability incubated for 72 hrs by MTT assay; type: functional, cell-based; details: MIA PaCa-2, 72 h
A549 [2] = assay: Antiproliferative activity against human A549 cells assessed as reduction in cell viability at incubated for 72 hrs by MTT assay; type: functional, cell-based; details: A549, 72 h
[3] = biological target: T1, L-lactate dehydrogenase A chain (Homo sapiens, UniProt P00338); assay: Inhibition of recombinant human full-length N-terminal His-tagged LDHA (1 to 332 residues) expressed in Escherichia coli using sodium pyruvate as substrate incubated for 10 mins
MIA PaCa-2 [4] = assay: Antiproliferative activity against human MIAPaCa2 cells assessed as reduction in cell viability at 50 uM incubated for 72 hrs by MTT assay relative to control; type: functional; details: for inhibition at 50 µM: MIA PaCa-2, 72 h
A549 [5] = assay: Antiproliferative activity against human A549 cells assessed as reduction in cell viability at 50 uM incubated for 72 hrs by MTT assay relative to control; type: functional; details: for inhibition at 50 µM: A549, 72 h
MCF7 = assay: Antiproliferative activity against human MCF7 cells assessed as reduction in cell viability at 50 uM incubated for 72 hrs by MTT assay relative to control; type: functional; details: for inhibition at 50 µM: MCF7, 72 h
[6] = biological target: T1, L-lactate dehydrogenase A chain; assay: Inhibition of recombinant human full-length N-terminal His-tagged LDHA (1 to 332 residues) expressed in Escherichia coli at 10 uM using sodium pyruvate as substrate incubated for 10 mins relative to control
MIA PaCa-2 [7] = assay: Inhibition of colony formation in human MIAPaCa2 cells at 0.5 uM treated for 3 days and supplemented with fresh medium with out compound every 3 days measured after 15 days by crystal violet staining based assay; type: functional, cell-based
MIA PaCa-2 [8] = assay: Induction of apoptosis in human MIAPaCa2 cells assessed as viable cells at 5 uM incubated for 12 hrs by annexin V and propidium iodide staining based flow cytometry analysis (reference value: 94.85 %); type: functional; details: MIA PaCa-2, 12 h, read-out: Activity
MIA PaCa-2 [9] = assay: Induction of apoptosis in human MIAPaCa2 cells assessed as early apoptotic cells at 5 uM incubated for 12 hrs by annexin V and propidium iodide staining based flow cytometry analysis (reference value: 0.40 %); type: functional
MIA PaCa-2 [10] = assay: Induction of apoptosis in human MIAPaCa2 cells assessed as late apoptotic cells at 5 uM incubated for 12 hrs by annexin V and propidium iodide staining based flow cytometry analysis (reference value: 3.21 %); type: functional
MIA PaCa-2 [11] = assay: Induction of apoptosis in human MIAPaCa2 cells assessed as necrotic cells at 5 uM incubated for 12 hrs by annexin V and propidium iodide staining based flow cytometry analysis (reference value: 1.54 %); type: functional
MIA PaCa-2 [12] = assay: Cell cycle arrest in human MIAPaCa2 cells assessed as accumulation at G1 phase at 5 uM incubated for 24 hrs by propidium iodide staining based flow cytometry (reference value: 56.01%); type: functional
MIA PaCa-2 [13] = assay: Cell cycle arrest in human MIAPaCa2 cells assessed as accumulation at S phase at 5 uM incubated for 24 hrs by propidium iodide staining based flow cytometry (reference value: 12.99%); type: functional
MIA PaCa-2 [14] = assay: Cell cycle arrest in human MIAPaCa2 cells assessed as accumulation at G2 phase at 5 uM incubated for 24 hrs by propidium iodide staining based flow cytometry (reference value: 31.00%); type: functional

Compound | IC50 (MIA PaCa-2 [1]) [µM] | IC50 (A549 [2]) [µM] | EC50 [3] [µM] | inhibition at 50 µM (MIA PaCa-2 [4]) [%] | inhibition at 50 µM (A549 [5]) [%] | inhibition at 50 µM (MCF7) [%] | inhibition [6] [%] | also measured
O=C1N[C@](c2ccc(N3CCOCC3)cc2)(c2ccsc2)CC(O)=C1Sc1ccccc1Cl | 0.48 | 0.36 |  |  |  |  |  | 
COc1ccccc1OCC(=O)NC1CCC(Oc2nc(C)cc(C)n2)CC1 (stereo not given) | > 50 | > 50 | 4.1 | 25.7 | 5.9 | 9.7 | > 90 | 
COc1cccc2c1C(=O)c1c(O)c3c(c(O)c1C2=O)C[C@@](O)(C(=O)CO)C[C@@H]3O[C@H]1C[C@H](N)[C@H](O)[C@H](C)O1 [DOXORUBICIN] |  |  |  |  |  |  |  | inhibition (MIA PaCa-2 [7]): Active; viability at 5 µM (MIA PaCa-2 [8]): 74.7%; Activity (MIA PaCa-2 [9]): 2.26%; Activity (MIA PaCa-2 [10]): 15.66%; Activity (MIA PaCa-2 [11]): 7.4%; Activity (MIA PaCa-2 [12]): 40.09%; Activity (MIA PaCa-2 [13]): 5.54%; Activity (MIA PaCa-2 [14]): 54.37%
O=C(CCC1CCCCC1)N1CCN(c2ncnc3c2nnn3Cc2ccccc2)CC1 | > 50 | > 50 | 2.14 | 21.4 | 45.6 | 22.3 | > 90 | 
NC(=O)C(=O)O [SODIUM OXAMATE] | 18900 | 45800 |  |  |  |  |  | 
O=C(c1ccco1)N1CCN(Cc2cc(=O)c(OCc3ccc(F)cc3)co2)CC1 | > 50 | > 50 | 9.7 |  |  |  |  | 
COc1cccc(N2CCN(C3CCN(C(=O)c4cnn5c4OCCC5)CC3)CC2)c1 | > 50 | > 50 | 3.4 | 12.4 | 25.8 | 17.9 | > 90 | 
O=C(c1ccco1)N1CCN(Cc2cc(=O)c(OCc3ccccc3)co2)CC1 | 12.5 | 14.7 | 0.68 | 95.6 | 84.7 | 93.4 | > 90 | 
COc1cc(CNC(=O)c2c(OC)cc(=O)n3c2CCC3)cc(OC)c1OC | > 50 | > 50 | 4.58 |  |  |  | > 90 | inhibition (MIA PaCa-2 [4]): inactive; inhibition (A549 [5]): inactive; inhibition (MCF7): inactive
O=C(Cn1cnc2ccccc2c1=O)N1CCN(C(=O)c2cc3n(n2)CCCC3)CC1 | > 50 | > 50 | 0.89 | 58.7 | 45.6 | 25.7 | > 90 | 
Cc1ncn(CC(=O)N2CC(Oc3cc(C)n(C4CC4)c(=O)c3)C2)c(=O)c1C | > 50 | > 50 | 6.4 |  | 4.5 | 12.3 | > 90 | 
O=C(c1ccco1)N1CCN(Cc2cc(=O)c(OCc3ccccc3Cl)co2)CC1 | > 50 | > 50 | 12.4 |  |  |  |  | 
O=C(c1ccco1)N1CCN(Cc2cc(=O)c(OCc3cccc(F)c3)co2)CC1 | 24.5 | 18.9 | 3.7 |  |  |  |  | 
Cc1ccccc1OCC(=O)NCc1nn(C2CCCC2)c2c1COCC2 | > 50 | > 50 | 5.7 |  |  |  | > 90 | inhibition (MIA PaCa-2 [4]): inactive; inhibition (A549 [5]): inactive; inhibition (MCF7): inactive
CC(=O)c1ccc(NC(=O)COc2cc(C)nc(C3CCC(C)CC3)n2)cc1 (stereo not given) | 29.8 | 22.7 | 1.2 | 75.6 | 45.8 | 85.7 | > 90 | 
COc1cccc2c1OC(C(=O)N1CCC(Cn3ccnc3C(C)C)CC1)C2 (stereo not given) | > 50 | > 50 | 7.5 |  |  |  | > 90 | inhibition (MIA PaCa-2 [4]): inactive; inhibition (A549 [5]): inactive; inhibition (MCF7): inactive
Cc1cc(N2CCC(CNS(=O)(=O)c3cccc4cccnc34)CC2)ccn1 | > 50 | > 50 | 0.34 | 25.8 | 14.7 |  | > 90 | 
O=C(NCC(=O)N1CCCC(Cc2nc(C3CC3)no2)C1)c1ccccc1 (stereo not given) | > 50 | > 50 | 3.3 | 12.5 | 25.8 | 17.9 | > 90 | 
Cc1ncn(CC(=O)N2CCC(Oc3cncc(N(C)C)n3)C2)c(=O)c1C (stereo not given) | > 50 | > 50 | 2.9 | 25.8 | 47.8 | 50.1 | > 90 | 
N#Cc1cccnc1N1CCC(CNC(=O)C(=O)Nc2cccc(C(F)(F)F)c2)CC1 | > 50 | > 50 | 1.8 | 56.8 | 45.7 | 38.7 | > 90 | 
O=C(c1ccco1)N1CCN(Cc2cc(=O)c(OCc3cccc(Cl)c3)co2)CC1 | 3.8 | 5.7 | 0.27 |  |  |  |  | 
O=C(c1ccco1)N1CCN(Cc2cc(=O)c(OCc3c(F)cccc3Cl)co2)CC1 | > 50 | > 50 | 5.6 |  |  |  |  | 
O=C(CC1CSc2nc3c(cnn3-c3ccccc3)c(=O)n21)NCCCn1ccnc1 (stereo not given) | > 50 | > 50 | 7.8 | 15.8 | 36.9 | 14.7 | > 90 | 
